One data set has as its system Musca domestica. The data set can be described thus: Musca domestica test (MUSCDO). Type of data set: in vivo. As to conditions: application rate 100 ppm; adult houseflies; after 2 days. On the procedure:
Musca domestica-Test (MUSCDO) Solvent: dimethyl sulphoxide
(§1) To produce a suitable preparation of active compound, 10 mg of active compound are mixed with 0.5 ml of dimethyl sulphoxide, and the concentrate is diluted with water to the desired concentration.
Vessels containing a sponge treated with sugar solution and the active compound preparation of the desired concentration are populated with 10 adult houseflies (Musca domestica).
After 2 days, the kill in % is determined. 100% means that all of the flies have been killed; 0% means that none of the flies have been killed.

The next data set concerns Rhipicephalus sanguineus. The data set can be described thus: Rhipicephalus sanguineus in vitro contact test. Type of data set: in vivo. As to conditions: application rate 5 μg/cm^2; adult dog ticks; after 48 h. As for the experimental part:
Rhipicephalus sanguineus—In Vitro Contact Tests
(§2) For the coating of the test tubes, 9 mg of active compound are first dissolved in 1 ml of acetone p.a. and then diluted to the desired concentration with acetone p.a. 250 μl of the solution are distributed homogeneously on the inner walls and the base of a 25 ml test tube by turning and rocking on an orbital shaker (rocking rotation at 30 rpm for 2 h). With 900 ppm active compound solution and internal surface 44.7 cm^2, given homogeneous distribution, an area-based dose of 5 μg/cm^2 is achieved.
After the solvent has evaporated off, the tubes are populated with 5-10 adult dog ticks (Rhipicephalus sanguineus), sealed with a perforated plastic lid and incubated in a horizontal position in the dark at room temperature and ambient humidity. After 48 h, efficacy is determined. To this end, the ticks are knocked to the floor of the tube and incubated on a hotplate at 45-50° C. for not more than 5 min. Ticks which remain motionless on the floor or move in such an uncoordinated manner that they are unable to deliberately avoid the heat by climbing upwards are considered to be dead or moribund.
An efficacy of 100% means that all the ticks were dead or moribund. 0% efficacy means that none of the ticks had been harmed.

Data set [1] has as its system Ctenocephalides felis. The data set can be described thus: Ctenocephalides felis oral test (CTECFE). It counts as in vivo. As to conditions: application rate 100 ppm in citrated cattle blood; after 2 days. On the procedure:
Ctenocephalides felis—Oral Test (CTECFE) Solvent: dimethyl sulphoxide
To produce a suitable preparation of active compound, 10 mg of active compound are mixed with 0.5 ml of dimethyl sulphoxide. Dilution with citrated cattle blood gives the desired concentration.
About 20 unfed adult cat fleas (Ctenocephalides felis) are placed into a chamber which is closed at the top and bottom with gauze. A metal cylinder whose bottom end is closed with parafilm is placed onto the chamber. The cylinder contains the blood/active compound preparation, which can be imbibed by the fleas through the parafilm membrane.
After 2 days, the kill in % is determined. 100% means that all of the fleas have been killed; 0% means that none of the fleas have been killed.

The next data set deals with Phaedon cochleariae. The data set can be described thus: Phaedon cochleariae spray test (PHAECO). As to conditions: application rate 100 g/ha; Chinese cabbage leaf discs; after 7 days. Type of data set: in vivo. On the procedure: Phaedon cochleariae—Spray Test (PHAECO) Solvent: 78.0 parts by weight of acetone • • 1.5 parts by weight of dimethylformamide Emulsifier: alkylaryl polyglycol ether
(§3) To produce a suitable preparation of active compound, 1 part by weight of active compound is dissolved using the specified parts by weight of solvent and made up with water containing an emulsifier concentration of 1000 ppm until the desired concentration is attained. To produce further test concentrations, the preparation is diluted with emulsifier-containing water.
After 7 days, efficacy in % is determined. 100% means that all the beetle larvae have been killed; 0% means that no beetle larvae have been killed.

Data set [2] in a line: log P by HPLC on reversed-phase column (C18), EEC Directive 79/831 Annex V.A8. Type of data set: physicochemical. As to conditions: reversed-phase C18 HPLC column; HPLC, C18, acetonitrile/water with formic acid gradient; read-out: log P. On the procedure:
^a) Unless indicated otherwise, the following method was used to determine the log P values and masses: The determination of the given log P values was carried out in accordance with EEC Directive 79/831 Annex V.A8 by HPLC (High Performance Liquid Chromatography) on a reversed-phase column (C18). Agilent 1100 LC system; 50*4.6 Zorbax Eclipse Plus C18 1.8 micron; mobile phase A: acetonitrile (0.1% formic acid); mobile phase B: water (0.09% formic acid); linear gradient from 10% acetonitrile to 95% acetonitrile in 4.25 min, then 95% acetonitrile for a further 1.25 min; oven temperature 55° C.; flow rate: 2.0 ml/min. Mass detection is effected by means of an Agilend MSD system.

Another data set has as its system Lucilia cuprina. The data set can be described thus: Lucilia cuprina test (LUCICU). The conditions noted are these: application rate 100 ppm; L1 larvae; after 2 days. It counts as in vivo. As for the experimental part:
Lucilia cuprina-Test (LUCICU) Solvent: dimethyl sulphoxide
as §1
About 20 L1 larvae of the Australian sheep blowfly (Lucilia cuprina) are transferred into a test vessel containing minced horsemeat and the active compound preparation of the desired concentration.
After 2 days, the kill in % is determined. 100% means that all the larvae have been killed; 0% means that no larvae have been killed.

The next data set has as its system Amblyomma hebraeum. Kind of data set: Amblyomma hebaraeum test (AMBYHE), tick nymph immersion. It counts as in vivo. The conditions noted are these: application rate 20 ppm; tick nymphs; after 42 days. As for the experimental part:
Amblyomma hebaraeum Test (AMBYHE) Solvent: dimethyl sulphoxide
as §1
Tick nymphs (Amblyomma hebraeum) are placed into perforated plastic beakers and immersed in the desired concentration for one minute. The ticks are transferred on filter paper into a Petri dish and stored in a climate-controlled cabinet.
After 42 days, the kill in % is determined. 100% means that all of the ticks have been killed; 0% means that none of the ticks have been killed.

A further data set concerns Spodoptera frugiperda. The data set can be described thus: Spodoptera frugiperda spray test (SPODFR). Type of data set: in vivo. As to conditions: application rate 100 g/ha; maize leaf discs; after 7 days. On the procedure:
Spodoptera frugiperda—Spray Test (SPODFR)
Solvent: 78.0 parts by weight of acetone • • 1.5 parts by weight of dimethylformamide Emulsifier: alkylaryl polyglycol ether
as §3
Leaf discs of maize (Zea mays) are sprayed with an active compound preparation of the desired concentration and, after drying, populated with caterpillars of the armyworm (Spodoptera frugiperda).
After 7 days, efficacy in % is determined. 100% means that all the caterpillars have been killed; 0% means that no caterpillars have been killed.

Data set [3] has as its system Boophilus microplus Parkhurst strain, SP-resistant. Kind of data set: Boophilus microplus dip test (BOOPMI Dip). The conditions noted are these: application rate 20 ppm; engorged adult female cattle ticks; after 7 days. Type of data set: in vivo. As for the experimental part:
Boophilus microplus—Dip Test (BOOPMI Dip) Test animals: cattle ticks (Boophilus microplus) Parkhurst strain, SP-resistant Solvent: dimethyl sulphoxide
10 mg of active compound are dissolved in 0.5 ml of dimethyl sulphoxide. To produce a suitable formulation, the active compound solution is diluted with water to the concentration desired in each case.
This active compound preparation is pipetted into tubes. 8-10 engorged adult female cattle ticks (Boophilus microplus) are transferred into a further tube with holes. The tube is immersed into the active compound preparation, and all the ticks are completely wetted. After the liquid has run out, the ticks are transferred on filter discs into plastic dishes and stored in a climate-controlled room.
Efficacy is assessed after 7 days by laying of fertile eggs. Eggs which are not visibly fertile are stored in a climate-controlled cabinet until the larvae hatch after about 42 days. An efficacy of 100% means that none of the ticks has laid any fertile eggs; 0% means that all the eggs are fertile.

In data set [4] the test system is Ctenocephalides felis. Kind of data set: Ctenocephalides felis in vitro contact test. Type of data set: in vivo. The conditions noted are these: application rate 5 μg/cm^2; adult cat fleas; after 48 h. As for the experimental part:
Ctenocephalides felis—In Vitro Contact Test
as §2
After the solvent has evaporated off, the tubes are populated with 5-10 adult cat fleas (Ctenocephalides felis), sealed with a perforated plastic lid and incubated in a horizontal position at room temperature and ambient humidity. After 48 h, efficacy is determined. To this end, the test tubes are stood upright and the fleas are knocked to the base of the tube. Fleas which remain motionless at the base or move in an uncoordinated manner are considered to be dead or moribund.
100% efficacy means that all the fleas were dead or moribund. 0% efficacy means that no fleas were harmed.

A further data set relates to Tetranychus urticae. The data set can be described thus: Tetranychus urticae spray test, OP-resistant (TETRUR). Type of data set: in vivo. As to conditions: application rate 100 g/ha; bean leaf discs; after 6 days. As for the experimental part:
Tetranychus urticae—Spray Test, OP-Resistant (TETRUR) Solvent: 78.0 parts by weight of acetone • • 1.5 parts by weight of dimethylformamide Emulsifier: alkylaryl polyglycol ether
as §3
Discs of bean leaves (Phaseolus vulgaris) infested by all stages of the greenhouse red spider mite (Tetranychus urticae) are sprayed with an active ingredient formulation of the desired concentration.
After 6 days, efficacy in % is determined. 100% means that all the spider mites have been killed; 0% means that no spider mites have been killed.

The subject of another data set is Boophilus microplus. Kind of data set: Boophilus microplus injection test (BOOPMI Inj). Type of data set: in vivo. The conditions noted are these: application rate 20 μg/animal; injection into abdomen. On the procedure: Boophilus microplus—Injection Test (BOOPMI Inj) Solvent: dimethyl sulphoxide
To produce a suitable preparation of active compound, 10 mg of active compound are mixed with 0.5 ml of solvent and the concentrate is diluted with solvent to the desired concentration.
1 μl of the active compound solution is injected into the abdomen of 5 engorged adult female cattle ticks (Boophilus microplus). The animals are transferred into dishes and kept in a climate-controlled room.
The activity is assessed after the desired time by laying of fertile eggs. Eggs which are not visibly fertile are stored in a climate-controlled cabinet until the larvae hatch after about 42 days. An efficacy of 100% means that none of the ticks has laid any fertile eggs; 0% means that all the eggs are fertile.

Take `Cn1nc(C(F)(F)C(F)(F)F)c(C(F)(F)F)c1-c1cn(-c2ccc(Cl)c(C(=O)NC3CC3)c2)nn1` [Ig-1, 2-chloro-N-cyclopropyl-5-{4-[1-methyl-3-(pentafluoroethyl)-4-(trifluoromethyl)-1H-pyrazol-5-yl]-1H-1,2,3-triazol-1-yl}benzamide]: the “efficacy (kill)” value with Musca domestica, in the data set with Ctenocephalides felis [1], with Lucilia cuprina and in the data set on Amblyomma hebraeum was 100% each time. In addition, the efficacy with Rhipicephalus sanguineus, with Phaedon cochleariae, in the data set on Spodoptera frugiperda, with Ctenocephalides felis [4] and with Tetranychus urticae was 100% throughout. For the same molecule, the chromatographic logP in data set [2] is 3.67. Also, the “efficacy (laying of fertile eggs)” value (in [3]; in the data set on Boophilus microplus) was 100% in each case.

Values taken from US20170114021A1, “HALOGEN-SUBSTITUTED COMPOUNDS” (priority 2014, published 2017).
